# Calls of active or inactive are those of the source. Unless noted, the rule behind the calls is not given here.
# Key:
# [1] = tested on: Eleocharis acicularis; experiment: Pre-emergence herbicidal activity against Eleocharis acicularis at 100 g a.i/ha measured after 14 days; format: functional, organism-based
# [2] = tested on: Oryza sativa; experiment: Phytotoxicity against Oryza sativa cv. Koshihikari (rice) at 100 g a.i/ha measured after 14 days; format: organism-based; conditions: in vivo, 336 h
# [3] = tested on: Schoenoplectiella juncoides; experiment: Pre-emergence herbicidal activity against Schoenoplectiella juncoides at 100 g a.i/ha measured after 14 days; format: functional, organism-based
# [4] = tested on: Pontederia vaginalis; experiment: Pre-emergence herbicidal activity against Monochoria vaginalis at 100 g a.i/ha measured after 14 days; format: functional, organism-based
# [5] = tested on: Ammannia multiflora; experiment: Pre-emergence herbicidal activity against Ammannia multiflora at 100 g a.i/ha measured after 14 days; format: functional, organism-based
# [6] = tested on: Rotala indica; experiment: Pre-emergence herbicidal activity against Rotala indica at 100 g a.i/ha measured after 14 days; format: functional, organism-based
# [7] = tested on: Elatine triandra; experiment: Pre-emergence herbicidal activity against Elatine triandra at 100 g a.i/ha measured after 14 days; format: functional, organism-based
# [8] = tested on: Lindernia procumbens; experiment: Pre-emergence herbicidal activity against Lindernia procumbens at 100 g a.i/ha measured after 14 days; format: functional, organism-based
# [9] = tested on: Cyperus difformis; experiment: Pre-emergence herbicidal activity against Cyperus difformis at 100 g a.i/ha measured after 14 days; format: functional, organism-based
# [10] = tested on: Echinochloa oryzicola; experiment: Pre-emergence herbicidal activity against Echinochloa oryzicola at 100 g a.i/ha measured after 14 days; format: functional, organism-based
# [11] = tested on: Oryza sativa; experiment: Phytotoxicity against Oryza sativa cv. Koshihikari (rice) at 500 g a.i/ha measured after 14 days; format: organism-based; conditions: in vivo, 336 h
# [12] = tested on: Eleocharis acicularis; experiment: Pre-emergence herbicidal activity against Eleocharis acicularis at 500 g a.i/ha measured after 14 days; format: functional, organism-based
# [13] = tested on: Pontederia vaginalis; experiment: Pre-emergence herbicidal activity against Monochoria vaginalis at 500 g a.i/ha measured after 14 days; format: functional, organism-based
# [14] = tested on: Schoenoplectiella juncoides; experiment: Pre-emergence herbicidal activity against Schoenoplectiella juncoides at 500 g a.i/ha measured after 14 days; format: functional, organism-based
# [15] = tested on: Ammannia multiflora; experiment: Pre-emergence herbicidal activity against Ammannia multiflora at 500 g a.i/ha measured after 14 days; format: functional, organism-based
# [16] = tested on: Elatine triandra; experiment: Pre-emergence herbicidal activity against Elatine triandra at 500 g a.i/ha measured after 14 days; format: functional, organism-based
# [17] = tested on: Rotala indica; experiment: Pre-emergence herbicidal activity against Rotala indica at 500 g a.i/ha measured after 14 days; format: functional, organism-based
# [18] = tested on: Lindernia procumbens; experiment: Pre-emergence herbicidal activity against Lindernia procumbens at 500 g a.i/ha measured after 14 days; format: functional, organism-based
# [19] = tested on: Echinochloa oryzicola; experiment: Pre-emergence herbicidal activity against Echinochloa oryzicola at 500 g a.i/ha measured after 14 days; format: functional, organism-based
# [20] = tested on: Cyperus difformis; experiment: Pre-emergence herbicidal activity against Cyperus difformis at 500 g a.i/ha measured after 14 days; format: functional, organism-based
# [21] = tested on: Eleocharis acicularis; experiment: Post-emergence herbicidal activity against Eleocharis acicularis assessed as bleaching of stem/leaf parts; format: functional, organism-based; also: test concentration or dose not given here
# [22] = tested on: Eleocharis acicularis; experiment: Pre-emergence herbicidal activity against Eleocharis acicularis assessed as bleaching of stem/leaf parts; format: functional, organism-based
# [23] = tested on: Ammannia multiflora; experiment: Pre-emergence herbicidal activity against Ammannia multiflora assessed as bleaching of stem/leaf parts; format: functional, organism-based
# [24] = tested on: Rotala indica; experiment: Pre-emergence herbicidal activity against Rotala indica assessed as bleaching of stem/leaf parts; format: functional, organism-based
# [25] = tested on: Elatine triandra; experiment: Pre-emergence herbicidal activity against Elatine triandra assessed as bleaching of stem/leaf parts; format: functional, organism-based
# [26] = tested on: Lindernia procumbens; experiment: Pre-emergence herbicidal activity against Lindernia procumbens assessed as bleaching of stem/leaf parts; format: functional, organism-based
# [27] = tested on: Schoenoplectiella juncoides; experiment: Pre-emergence herbicidal activity against Schoenoplectiella juncoides assessed as bleaching of stem/leaf parts; format: functional, organism-based
# [28] = tested on: Pontederia vaginalis; experiment: Pre-emergence herbicidal activity against Monochoria vaginalis assessed as bleaching of stem/leaf parts; format: functional, organism-based
# [29] = tested on: Cyperus difformis; experiment: Pre-emergence herbicidal activity against Cyperus difformis assessed as bleaching of stem/leaf parts; format: functional, organism-based
# [30] = tested on: Echinochloa oryzicola; experiment: Pre-emergence herbicidal activity against Echinochloa oryzicola assessed as bleaching of stem/leaf parts; format: functional, organism-based
# [31] = tested on: Ammannia multiflora; experiment: Post-emergence herbicidal activity against Ammannia multiflora assessed as bleaching of stem/leaf parts; format: functional, organism-based; also: test concentration or dose not given here
# [32] = tested on: Elatine triandra; experiment: Post-emergence herbicidal activity against Elatine triandra assessed as bleaching of stem/leaf parts; format: functional, organism-based; also: test concentration or dose not given here
# [33] = tested on: Rotala indica; experiment: Post-emergence herbicidal activity against Rotala indica assessed as bleaching of stem/leaf parts; format: functional, organism-based; also: test concentration or dose not given here
# [34] = tested on: Schoenoplectiella juncoides; experiment: Post-emergence herbicidal activity against Schoenoplectiella juncoides assessed as bleaching of stem/leaf parts; format: functional, organism-based; also: test concentration or dose not given here
# [35] = tested on: Lindernia procumbens; experiment: Post-emergence herbicidal activity against Lindernia procumbens assessed as bleaching of stem/leaf parts; format: functional, organism-based; also: test concentration or dose not given here
# [36] = tested on: Pontederia vaginalis; experiment: Post-emergence herbicidal activity against Monochoria vaginalis assessed as bleaching of stem/leaf parts; format: functional, organism-based; also: test concentration or dose not given here
# [37] = tested on: Cyperus difformis; experiment: Post-emergence herbicidal activity against Cyperus difformis assessed as bleaching of stem/leaf parts; format: functional, organism-based; also: test concentration or dose not given here
# [38] = tested on: Echinochloa oryzicola; experiment: Post-emergence herbicidal activity against Echinochloa oryzicola assessed as bleaching of stem/leaf parts; format: functional, organism-based; also: test concentration or dose not given here
SMILES,Activity [1],Activity [2],Activity [3],Activity [4],Activity [5],Activity [6],Activity [7],Activity [8],Activity [9],Activity [10],Activity [11],Activity [12],Activity [13],Activity [14],Activity [15],Activity [16],Activity [17],Activity [18],Activity [19],Activity [20],other results
Cn1cc(C(=O)Nc2ccccc2)c(OCc2cccc(C(F)(F)F)c2)n1,Active,Non-toxic,inactive,Active,Active,Active,Active,Active,inactive,Active,Non-toxic,Active,Active,Active,Active,Active,Active,Active,Active,Active,Activity [21]: Active; Activity [22]: Active; Activity [23]: Active; Activity [24]: Active; Activity [25]: Active; Activity [26]: Active; Activity [27]: Active; Activity [28]: Active; Activity [29]: Active; Activity [30]: Active; Activity [31]: Active; Activity [32]: Active; Activity [33]: Active; Activity [34]: Active; Activity [35]: Active; Activity [36]: Active; Activity [37]: Active; Activity [38]: Active
Cn1cc(C(=O)NOc2ccc(Cl)cc2Cl)c(OCc2cccc(C(F)(F)F)c2)n1,Active,Non-toxic,inactive,Active,Active,Active,Active,Active,Active,Active,Non-toxic,Active,Active,Active,Active,Active,Active,Active,Active,Active,Activity [21]: Active; Activity [22]: Active; Activity [23]: Active; Activity [24]: Active; Activity [25]: Active; Activity [26]: Active; Activity [27]: Active; Activity [28]: Active; Activity [29]: Active; Activity [30]: Active; Activity [31]: Active; Activity [32]: Active; Activity [33]: Active; Activity [34]: Active; Activity [35]: Active; Activity [36]: Active; Activity [37]: Active; Activity [38]: Active
Cn1cc(C(=O)Nc2ccc(F)cc2F)c(OCc2cccc(C(F)(F)F)c2)n1,Active,Non-toxic,inactive,Active,Active,Active,Active,Active,Active,inactive,Toxic,Active,Active,Active,Active,Active,Active,Active,inactive,Active,Activity [21]: Active; Activity [22]: Active; Activity [23]: Active; Activity [24]: Active; Activity [25]: Active; Activity [26]: Active; Activity [27]: Active; Activity [28]: Active; Activity [29]: Active; Activity [30]: Active; Activity [31]: Active; Activity [32]: Active; Activity [33]: Active; Activity [34]: Active; Activity [35]: Active; Activity [36]: Active; Activity [37]: Active; Activity [38]: Active
Cn1cc(C(=O)NOc2ccc(C(F)(F)F)cc2)c(OCc2cccc(C(F)(F)F)c2)n1,Active,Non-toxic,Active,Active,Active,Active,Active,Active,Active,Active,Non-toxic,Active,Active,Active,Active,Active,Active,Active,Active,Active,Activity [21]: Active; Activity [22]: Active; Activity [23]: Active; Activity [24]: Active; Activity [25]: Active; Activity [26]: Active; Activity [27]: Active; Activity [28]: Active; Activity [29]: Active; Activity [30]: Active; Activity [31]: Active; Activity [32]: Active; Activity [33]: Active; Activity [34]: Active; Activity [35]: Active; Activity [36]: Active; Activity [37]: Active; Activity [38]: Active
Cn1cc(C(=O)NOc2ccc(F)cc2F)c(OCc2cccc(C(F)(F)F)c2)n1,Active,Non-toxic,inactive,Active,Active,Active,Active,Active,Active,inactive,Non-toxic,Active,Active,Active,Active,Active,Active,Active,Active,Active,Activity [21]: Active; Activity [22]: Active; Activity [23]: Active; Activity [24]: Active; Activity [25]: Active; Activity [26]: Active; Activity [27]: Active; Activity [28]: Active; Activity [29]: Active; Activity [30]: Active; Activity [31]: Active; Activity [32]: Active; Activity [33]: Active; Activity [34]: Active; Activity [35]: Active; Activity [36]: Active; Activity [37]: Active; Activity [38]: Active

# Reference: ChEMBL document CHEMBL3046635, “Synthesis and Herbicidal Activity of New Pyrazole-4-carboxamide Derivatives” (J Pestic Sci, 2004)
